Test results as given in patent US20250195521A1 (Revolution Medicines, Inc., priority 2020, published 2025).
Where two headings read alike, the source gives them in different places.

How the values were obtained:
[1] = tested on: NCI-H358 cells (K-Ras G12C); assay: CellTiter-Glo cell viability, NCI-H358; type: cell-based, human; conditions: K-Ras G12C, 5-day treatment, read-out: H358 Cell Viability IC50
Summary of the method: (§1)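 Compounds dispensed directly onto seeded cells; on day 5 plates equilibrated ~30 min to room temperature and luminescence read. Signal normalized to DMSO average (%) and fitted by four-parameter logistic.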

[2] = tested on: Capan-1 cells (K-Ras G12V); assay: CellTiter-Glo cell viability, Capan-1; type: cell-based, human; conditions: K-Ras G12V, 5-day treatment, read-out: Capan-1 Cell Viability IC50
Summary of the method: as §1

KRAS G12C = KRAS G12C (Homo sapiens (Human), UniProt P01116+P62937, G12C); assay: Ras-Raf disruption/FRET/MOA assay (BRAF RBD, Cyclophilin A); type: biochemical; conditions: read-out: KRAS G12C FRET IC50
KRAS G12C, sequence (P01116-2 other isoform, or with tags, fused parts or gaps G12C): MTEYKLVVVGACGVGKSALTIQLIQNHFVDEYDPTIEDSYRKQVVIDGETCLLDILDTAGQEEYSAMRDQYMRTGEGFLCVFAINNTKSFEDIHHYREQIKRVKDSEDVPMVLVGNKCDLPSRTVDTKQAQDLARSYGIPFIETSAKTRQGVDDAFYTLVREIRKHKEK
KRAS G12C, sequence (P62937 whole entry): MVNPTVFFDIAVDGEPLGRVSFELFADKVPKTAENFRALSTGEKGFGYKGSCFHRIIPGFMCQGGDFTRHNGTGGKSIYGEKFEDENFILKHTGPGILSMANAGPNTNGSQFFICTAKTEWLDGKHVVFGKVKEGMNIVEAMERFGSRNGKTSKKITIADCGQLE
Summary of the method: (§2)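 Measured: compound-facilitated Cyclophilin A:Ras complex blocking RAF RBD binding. Conditions: 12.5 nM Ras-GMPPNP, 50 nM BRAF RBD, 25 μM CypA, 3 h plus 1.5 h detection. Output: IC50 from TR-FRET ratio.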

KRAS G12D = KRAS G12D (Homo sapiens (Human), UniProt P01116+P62937, G12D); assay: as above; type: biochemical; conditions: read-out: KRAS G12D FRET IC50
KRAS G12D, sequence (P01116 other isoform, or with tags, fused parts or gaps G12D): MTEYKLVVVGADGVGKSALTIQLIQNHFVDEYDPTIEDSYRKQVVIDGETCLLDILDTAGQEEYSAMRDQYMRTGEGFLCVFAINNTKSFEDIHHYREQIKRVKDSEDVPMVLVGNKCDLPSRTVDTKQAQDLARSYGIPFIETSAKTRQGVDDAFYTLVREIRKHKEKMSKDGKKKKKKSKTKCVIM
KRAS G12D, sequence (P62937 whole entry): as the sequence (P62937 whole entry) above
Summary of the method: as §2

KRAS G12S = KRAS G12S (Homo sapiens (Human), UniProt P01116+P62937, G12S); assay: as above; type: biochemical; conditions: read-out: KRAS G12S FRET IC50
KRAS G12S, sequence (P01116 other isoform, or with tags, fused parts or gaps G12S): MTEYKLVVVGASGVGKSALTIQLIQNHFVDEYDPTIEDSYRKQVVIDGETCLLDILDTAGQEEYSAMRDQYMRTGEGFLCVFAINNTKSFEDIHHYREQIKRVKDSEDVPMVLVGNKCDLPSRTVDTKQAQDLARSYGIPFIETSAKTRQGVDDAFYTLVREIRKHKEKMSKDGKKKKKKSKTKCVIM
KRAS G12S, sequence (P62937 whole entry): as the sequence (P62937 whole entry) above
Summary of the method: as §2

KRAS G12V = KRAS G12V (Homo sapiens (Human), UniProt P01116+P62937, G12V); assay: as above; type: biochemical; conditions: read-out: KRAS G12V FRET IC50
KRAS G12V, sequence (P01116 other isoform, or with tags, fused parts or gaps G12V): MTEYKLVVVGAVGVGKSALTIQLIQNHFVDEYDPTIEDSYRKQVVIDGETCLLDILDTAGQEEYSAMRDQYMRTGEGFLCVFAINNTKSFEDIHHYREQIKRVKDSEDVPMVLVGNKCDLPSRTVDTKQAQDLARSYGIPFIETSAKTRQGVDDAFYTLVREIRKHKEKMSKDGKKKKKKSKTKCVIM
KRAS G12V, sequence (P62937 whole entry): as the sequence (P62937 whole entry) above
Summary of the method: as §2

KRAS G13C = KRAS G13C (Homo sapiens (Human), UniProt P01116+P62937, G13C); assay: as above; type: biochemical; conditions: read-out: KRAS G13C FRET IC50
KRAS G13C, sequence (P01116 other isoform, or with tags, fused parts or gaps G13C): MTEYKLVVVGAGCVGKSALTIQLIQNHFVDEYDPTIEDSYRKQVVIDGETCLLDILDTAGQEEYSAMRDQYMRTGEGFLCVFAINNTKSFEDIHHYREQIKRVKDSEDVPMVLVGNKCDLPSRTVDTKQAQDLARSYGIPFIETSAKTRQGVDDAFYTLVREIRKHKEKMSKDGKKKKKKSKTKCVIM
KRAS G13C, sequence (P62937 whole entry): as the sequence (P62937 whole entry) above
Summary of the method: as §2

KRAS WT = KRAS WT (Homo sapiens (Human), UniProt P01116+P62937); assay: as above; type: biochemical; conditions: read-out: KRAS WT FRET data IC50
KRAS WT, sequence (P01116 other isoform, or with tags, fused parts or gaps): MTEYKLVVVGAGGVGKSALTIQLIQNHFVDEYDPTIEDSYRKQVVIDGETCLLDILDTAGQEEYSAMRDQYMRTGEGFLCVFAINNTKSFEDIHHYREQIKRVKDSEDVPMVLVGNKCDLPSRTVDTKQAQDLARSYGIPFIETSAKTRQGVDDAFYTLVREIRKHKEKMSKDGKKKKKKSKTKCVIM
KRAS WT, sequence (P62937 whole entry): as the sequence (P62937 whole entry) above
Summary of the method: as §2

NRAS G12C = NRAS G12C (Homo sapiens (Human), UniProt P01111+P62937, G12C); assay: as above; type: biochemical; conditions: read-out: NRAS G12C FRET data IC50
NRAS G12C, sequence (P01111 whole entry G12C): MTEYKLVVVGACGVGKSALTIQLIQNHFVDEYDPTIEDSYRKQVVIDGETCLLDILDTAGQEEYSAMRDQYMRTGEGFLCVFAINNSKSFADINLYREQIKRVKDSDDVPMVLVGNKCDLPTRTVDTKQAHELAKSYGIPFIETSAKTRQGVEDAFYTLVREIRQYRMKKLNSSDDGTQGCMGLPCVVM
NRAS G12C, sequence (P62937 whole entry): as the sequence (P62937 whole entry) above
Summary of the method: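 25 μM tagless Cyclophilin A, 12.5 nM His6-Ras-GMPPNP and 50 nM GST-BRAF RBD in HEPES pH 7.3 buffer with 5 mM MgCl2, with compound (10-point 3-fold series from 30 μM final) for 3 h at 25 °C. Anti-His Eu and anti-GST APC then added for 1.5 h. IC50 from TR-FRET ratio decrease versus DMSO.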

NCI-H358 (K-Ras G12C) = assay: CellTiter-Glo cell viability assay, NCI-H358; type: cell-based, human; conditions: 5-day treatment, read-out: H358 Cell Viability assay data (K-Ras G12C, IC50)
Summary of the method: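 NCI-H358 (K-Ras G12C) cells treated with compound dispensed directly into plates. CellTiter-Glo luminescence read on day 5 after ~30 min equilibration to room temperature. Signal normalised to DMSO average ×100, then fitted with a four-parameter logistic model.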

[3] = target: K-Ras G12C(GMP-PNP) binding to BRAF RBD (Homo sapiens (Human), UniProt P01116+P62937, G12C); assay: Disruption of BRAF RBD interaction with K-Ras (FRET / MOA assay), K-Ras G12C; type: biochemical
K-Ras G12C(GMP-PNP) binding to BRAF RBD, sequence (P01116 other isoform, or with tags, fused parts or gaps G12C): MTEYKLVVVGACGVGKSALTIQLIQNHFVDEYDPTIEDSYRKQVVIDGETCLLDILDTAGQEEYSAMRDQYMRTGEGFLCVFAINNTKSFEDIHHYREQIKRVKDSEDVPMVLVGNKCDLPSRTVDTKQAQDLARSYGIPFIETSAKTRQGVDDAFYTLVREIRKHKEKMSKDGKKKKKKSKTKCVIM
K-Ras G12C(GMP-PNP) binding to BRAF RBD, sequence (P62937 whole entry, canonical isoform): as the sequence (P62937 whole entry) above
Summary of the method: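 Incubation of compound (up to 30 μM final, 3-fold steps) with GMP-PNP-type loaded Ras isoform, cyclophilin A and BRAF RBD ran 3 h at 25° C, followed by 1.5 h with detection antibodies. Disruption appears as a reduced TR-FRET ratio compared with DMSO controls, expressed as IC50.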

KRAS G13D = KRAS G13D (Homo sapiens (Human), UniProt P01116+P62937, G13D); assay: Ras-Raf disruption/FRET/MOA assay (BRAF RBD, Cyclophilin A); type: biochemical; conditions: read-out: KRAS G13D FRET data IC50
KRAS G13D, sequence (P01116 other isoform, or with tags, fused parts or gaps G13D): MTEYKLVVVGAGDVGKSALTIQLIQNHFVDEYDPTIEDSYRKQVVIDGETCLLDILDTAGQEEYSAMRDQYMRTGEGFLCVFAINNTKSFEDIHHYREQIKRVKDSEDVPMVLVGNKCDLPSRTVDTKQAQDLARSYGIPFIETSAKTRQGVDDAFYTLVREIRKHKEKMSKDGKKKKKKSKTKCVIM
KRAS G13D, sequence (P62937 whole entry): as the sequence (P62937 whole entry) above
Summary of the method: as §2

| Structure (SMILES) | IC50 ([1]; Homo sapiens, NCI-H358, 120 h) [nM] | IC50 ([2]; Homo sapiens, CAPAN-1, 120 h) [nM] | IC50 (KRAS G12C) [nM] | IC50 (KRAS G12D) [nM] | IC50 (KRAS G12S) [nM] | IC50 (KRAS G12V) [nM] | IC50 (KRAS G13C) [nM] | IC50 (KRAS WT) [nM] | IC50 (NRAS G12C) [nM] | IC50 (NCI-H358 (K-Ras G12C); Homo sapiens, NCI-H358, 120 h) [nM] | IC50 ([3]; KRAS G12C FRET IC50) [nM] | IC50 (KRAS G13D) [nM] | IC50 ([3]; read-out: KRAS G12C FRET IC50) [nM] | IC50 [1] [nM] | IC50 [2] [nM] | IC50 (NCI-H358 (K-Ras G12C)) [nM] |
| --- | --- | --- | --- | --- | --- | --- | --- | --- | --- | --- | --- | --- | --- | --- | --- | --- |
| CCn1c(-c2cccnc2[C@H](C)OC)c2c3cc(ccc31)-c1csc(n1)C[C@H](NC(=O)[C@H](C(C)C)N(C)C(=O)C1COC1)C(=O)N1CCC[C@H](N1)C(=O)OCC(C)(C)C2 [Compound A245] | 100 to 1000 | 100 to 1000 | 1000 to 10000 | > 10000 | 1000 to 10000 | 1000 to 10000 | 1000 to 10000 | 1000 to 10000 | 1000 to 10000 | < 10 | < 10 | – | – | – | – | – |
| CCn1c(-c2cccnc2[C@H](C)OC)c2c3cc(ccc31)-c1csc(n1)C[C@H](NC(=O)[C@H](C(C)C)N(C)C(=O)N1C[C@@H](C)N(C)C[C@@H]1C)C(=O)N1CCC[C@H](N1)C(=O)OCC(C)(C)C2 [Compound A292] | 100 to 1000 | 100 to 1000 | 100 to 1000 | 1000 to 10000 | 1000 to 10000 | 1000 to 10000 | 1000 to 10000 | 100 to 1000 | 100 to 1000 | < 10 | – | 1000 to 10000 | < 10 | – | – | – |
| CCn1c(-c2cccnc2[C@H](C)OC)c2c3cc(ccc31)-c1csc(n1)C[C@H](NC(=O)[C@H](C(C)C)N(C)C(=O)N1CC(N3CCC3)C1)C(=O)N1CCC[C@H](N1)C(=O)OCC(C)(C)C2 [Compound A295] | 10 to 100 | 10 to 100 | 100 to 1000 | 1000 to 10000 | 100 to 1000 | 100 to 1000 | 100 to 1000 | 100 to 1000 | 100 to 1000 | < 10 | – | 100 to 1000 | 10 to 100 | – | – | – |
| CCn1c(-c2cccnc2[C@H](C)OC)c2c3cc(ccc31)-c1csc(n1)C[C@H](NC(=O)[C@H](C(C)C)N1CCCN(C)C1=O)C(=O)N1CCC[C@H](N1)C(=O)OCC(C)(C)C2 [Compound A317] | 100 to 1000 | 1000 to 10000 | 1000 to 10000 | > 10000 | 1000 to 10000 | 1000 to 10000 | 1000 to 10000 | 1000 to 10000 | 1000 to 10000 | < 10 | – | 1000 to 10000 | < 10 | – | – | – |
| CCN(CC)C(=O)N(C)[C@H](C(=O)N[C@H]1Cc2nc(cs2)-c2ccc3c(c2)c(c(-c2cccnc2[C@H](C)OC)n3CC)CC(C)(C)COC(=O)[C@@H]2CCCN(N2)C1=O)C(C)C [Compound A351] | 10 to 100 | 100 to 1000 | 10 to 100 | 100 to 1000 | 10 to 100 | 100 to 1000 | 10 to 100 | 10 to 100 | 10 to 100 | < 10 | – | 100 to 1000 | < 10 | – | – | – |
| CCn1c(-c2cccnc2[C@H](C)OC)c2c3cc(ccc31)-c1csc(n1)C[C@H](NC(=O)C1CC1)C(=O)N1CCC[C@H](N1)C(=O)OCC(C)(C)C2 [Compound A367] | 100 to 1000 | 100 to 1000 | 100 to 1000 | 1000 to 10000 | 100 to 1000 | 100 to 1000 | 100 to 1000 | 100 to 1000 | 100 to 1000 | 10 to 100 | – | 1000 to 10000 | 10 to 100 | – | – | – |
| CCn1c(-c2cccnc2[C@H](C)OC)c2c3cc(ccc31)-c1cc(O)cc(c1)C[C@H](NC(=O)[C@H](C(C)C)N(C)C(=O)[C@H]1CCN(C(=O)[C@@H](C)N(C)C)C1)C(=O)N1CCC[C@H](N1)C(=O)OCC(C)(C)C2 [Compound A386] | 100 to 1000 | 100 to 1000 | 10 to 100 | 10 to 100 | 10 to 100 | 100 to 1000 | 10 to 100 | 10 to 100 | 10 to 100 | – | – | 10 to 100 | 10 to 100 | – | – | – |
| CCn1c(-c2cccnc2[C@H](C)OC)c2c3cc(ccc31)-c1cc(O)cc(c1)C[C@H](NC(=O)[C@H](C(C)C)N(C)C(=O)[C@@H]1CCCC[C@@H]1N)C(=O)N1CCC[C@H](N1)C(=O)OCC(C)(C)C2 [Compound A395] | 100 to 1000 | 100 to 1000 | 10 to 100 | 10 to 100 | 10 to 100 | 100 to 1000 | 10 to 100 | 10 to 100 | 10 to 100 | < 10 | – | 10 to 100 | 100 to 1000 | – | – | – |
| CCn1c(-c2cccnc2[C@H](C)OC)c2c3cc(ccc31)-c1csc(n1)C[C@H](NC(=O)[C@H](C(C)C)N(C)C(=O)N1CCOC[C@@H]1C)C(=O)N1CCC[C@H](N1)C(=O)OCC(C)(C)C2 [Compound A403] | 10 to 100 | 10 to 100 | 100 to 1000 | 1000 to 10000 | 100 to 1000 | 100 to 1000 | 100 to 1000 | 100 to 1000 | 100 to 1000 | < 10 | – | 100 to 1000 | < 10 | – | – | – |
| CCn1c(-c2cccnc2[C@H](C)OC)c2c3cc(ccc31)-c1cc(O)cc(c1)C[C@H](NC(=O)[C@H](C(C)C)N(C)C(=O)C13CC(CO1)C3)C(=O)N1CCC[C@H](N1)C(=O)OCC(C)(C)C2 [Compound A406] | 10 to 100 | 100 to 1000 | 10 to 100 | 100 to 1000 | 10 to 100 | 100 to 1000 | 10 to 100 | 10 to 100 | 10 to 100 | 10 to 100 | – | 100 to 1000 | 100 to 1000 | – | – | – |
| CCn1c(-c2cccnc2[C@H](C)OC)c2c3cc(ccc31)-c1cc(O)cc(c1)C[C@H](NC(=O)[C@H](C(C)C)N(C)C(=O)C1CCC3(CCOC3)O1)C(=O)N1CCC[C@H](N1)C(=O)OCC(C)(C)C2 (some centres unmarked) [Compound A409] | 100 to 1000 | 100 to 1000 | 10 to 100 | 100 to 1000 | 10 to 100 | 100 to 1000 | 10 to 100 | 10 to 100 | 10 to 100 | 10 to 100 | – | 10 to 100 | 100 to 1000 | – | – | – |
| CCn1c(-c2cccnc2[C@H](C)OC)c2c3cc(ccc31)-c1cc(O)cc(c1)C[C@H](NC(=O)[C@H](C(C)C)N(C)C(=O)C13CCC(CO1)C3)C(=O)N1CCC[C@H](N1)C(=O)OCC(C)(C)C2 [Compound A411] | – | – | 10 to 100 | 100 to 1000 | 10 to 100 | 100 to 1000 | 100 to 1000 | – | 10 to 100 | < 10 | – | – | < 10 | 100 to 1000 | 100 to 1000 | – |
| CCOC1c2nc(cs2)-c2ccc3c(c2)c(c(-c2cc(C4CC5COCC(C4)N5C4CC4)cnc2C(C)OC)n3CC)CC(C)(C)COC(=O)C2CCCN(N2)C(=O)C1NC(=O)C1C(C)C1C [Compound A483, (1r,2R,3S)—N-((6^3S,3S,4S,Z)-12-(5-((1R,5S,7s)-9-cyclopropyl-3-oxa-9-azabicyclo[3.3.1]nonan-7-yl)-2-((S)-1-methoxyethyl)pyridin-3-yl)-3-ethoxy-1^1-ethyl-10,10-dimethyl-5,7-dioxo-6^1,6^2,6^3,6^4,6^5,6^6-hexahydro-1^1H-8-oxa-2 (4,2)-thiazola-1 (5,3)-indola-6 (1,3)-pyridazinacycloundecaphane-4-yl)-2,3-dimethylcyclopropane-1-carboxamide] | – | – | 10 to 100 | 10 to 100 | 10 to 100 | 100 to 1000 | 100 to 1000 | – | – | – | – | – | 100 to 1000 | < 10 | 10 to 100 | < 10 |
